One data set deals with HIV-1DRV^RP20. Kind of data set: Antiviral activity against DRV-resistant variant, passage 20. The class given is cell-based. Conditions: Human immunodeficiency virus 1, read-out: EC50 against HIV-1DRV^RP20.
Another data set relates to MT-2 cells. Kind of data set: Cytotoxicity (CC50), MTT assay. Conditions: human, 7 days. Format: cell-based. The procedure: The susceptibility of HIV-1LAI to various drugs was determined as previously described with minor modifications. Briefly, MT-2 cells (10^4/ml) were exposed to 100 50% tissue culture infectious doses (TCID50) of HIV-1LAI in the presence or absence of various concentrations of drugs in 96-well microculture plates and were incubated at 37° C. for 7 days. After 100 μl of the medium was removed from each well, 3-(4,5-dimetylthiazol-2-yl)-2,5-diphenyltetrazolium bromide (MTT) solution (10 μl, 7.5 mg/ml in phosphate-buffered saline) was added to each well in the plate, followed by incubation at 37° C. for 2 h. […] All assays were performed in duplicate or triplicate. […] In determining the drug susceptibility of certain laboratory HIV-1 strains, MT-4 cells were employed as target cells as previously described with minor modifications. In brief, MT-4 cells (10^5/ml) were exposed to 100 TCID50 of drug-resistant HIV-1 strains in the presence or absence of various concentrations of drugs and were incubated at 37° C. On day 7 of culture, the supernatants were harvested and the amounts of p24 Gag protein were determined by using a fully automated chemiluminescent enzyme immunoassay system (Lumipulse F: Fujirebio Inc., Tokyo). […] All assays were performed in duplicate or triplicate. PHA-PBMs were derived from a single donor in each independent experiment. Thus, for obtaining the data, three different donors were recruited.
(Tetrazolium assays rely on reduction of a dye to a coloured formazan, in cell work by metabolically active cells.)

One may read the EC50 as the concentration at which the effect is half-maximal. For `CC(C)CN(C[C@@H](O)[C@H](Cc1ccccc1)NC(=O)O[C@H]1CO[C@H]2OCC[C@H]21)S(=O)(=O)c1ccc(N)cc1` [DRV, darunavir], the EC50 in the data set on HIV-1DRV^RP20 was 0.174 µM.
A word on the CC50: it is the concentration giving 50% cytotoxicity. A low value points to greater toxicity to the cells. `CC(C)CN(C[C@@H](O)[C@H](Cc1ccccc1)NC(=O)O[C@H]1CO[C@H]2OCC(F)(F)[C@H]21)S(=O)(=O)c1ccc(N)cc1` [GRL-05010] had a CC50 in the data set with MT-2 cells of 37 µM.

These data come from patent US9346820B2, “HIV-1 protease inhibitors having gem-di-fluoro bicyclic P2-ligands” (priority 2013, dated 2016).
